IC50 data for 22 compounds are collected here from US20260151375A1, “CDK2 INHIBITORS AND METHODS OF USING THE SAME” (Cedilla Therapeutics, Inc., priority 2022, published 2026).

The test system of one experiment is Kuramochi cells. The experiment is described as follows: IncuCyte Kuramochi Assay (cell proliferation). The class given is cell-based. The settings on record: Kuramochi cells labeled with mApple-H2B, cell count, read-out: IncuCyte - Kuramochi RB-WT: IC50. The essentials: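 GI50 came from dose-response fits of cell-count fold change between 0 and 72 h, normalized to DMSO controls. Counts were fluorescent nuclei from live-cell images over a 10-point, ½ log series starting at 20 μM.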

In another experiment the target is T1, CDK2/Cyclin E1 (Homo sapiens, UniProt P24941).
T1 construct: purchased 14-475
Nature of the experiment: ADPGLO (CDK2/E1-37 C), ADP-Glo Luminescent Kinase Assay. Type of experiment: biochemical. The settings on record: 0.18 nM CDK2/Cyclin E1, 100 μM ATP, Histone H1, 37° C. The procedure:
Inhibition of CDK2/Cyclin E1 activity by the presence of small molecules was evaluated using ADP-Glo Luminescent Kinase Assay (Promega). Activated CDK2/Cyclin E1 was incubated with its substrate Histone H1 (SignalChem H10-54N) in the kinase reaction buffer (100 μM ATP, 50 mM HEPES pH 7.5, 10 mM MgCl2, 1 mM EDTA, 2 mM DTT, 0.01% Brij35, 0.5 mg/mL BSA). Luminescence was recorded with an Envision plate reader (PerkinElmer).
Dose titrations of inhibitors in 100% DMSO were combined with 0.36 nM CDK2/Cyclin E1 in reaction buffer. The mixtures were incubated for 60 minutes at 37° C. before the addition of ATP and Histone H1 substrate to initiate the kinase reaction. The final conditions were 0.18 nM CDK2/Cyclin E1, 100 μM ATP, and 1.5 μM Histone H1. The reactions were incubated at 37° C. for 90 minutes before being stopped with the addition of ADP-Glo reagent. This mixture was incubated at room temperature for 60 minutes before Kinase Detection Solution is added to generate luminescence. The stopped reactions were analyzed on an Envision plate reader. The conversion ratios were normalized to yield % activity, plotted against compound concentration, and fit to a four-parameter equation to determine the IC50 for each compound.

Each structure is given as a SMILES string. Like-named read-outs stand apart in the source and are kept apart here.

In general, IC50 refers to the point on the concentration scale where inhibition reaches its midpoint. In the case of `CC(c1nc(C2CN(C(=O)c3cnn(Cc4ccc(C(O)C(F)(F)F)cc4)c3)CC23CN(C(=O)[C@H]2CC2(C)C)C3)no1)n1ccc(C2CCCC2)n1` (some centres unmarked) [I-113], the IC50 in the experiment with Kuramochi cells (72 h) and against CDK2/Cyclin E1 was 0.5 to 5 µM throughout.
Turning to `CC(c1nc(C2CN(C(=O)c3cnn(Cc4nnn[nH]4)c3)CC23CN(C(=O)[C@H]2CC2(C)C)C3)no1)n1ccc(C2CCCC2)n1` (stereo partly drawn) [I-114, (1-((1H-tetrazol-5-yl)methyl)-1H-pyrazol-4-yl)(8-(5-(1-(3-cyclopentyl-1H-pyrazol-1-yl)ethyl)-1,2,4-oxadiazol-3-yl)-2-((S)-2,2-dimethylcyclopropane-1-carbonyl)-2,6-diazaspiro[3.4]octan-6-yl)methanone], the values for the 50% inhibitory concentration (IC50) in the experiment with Kuramochi cells (72 hours) and on CDK2/Cyclin E1 were more than 10 µM and 0.5 to 5 µM, respectively.
Regarding `CC(c1nc(C2CN(C(=O)c3cnc(O)cn3)CC23CN(C(=O)C2(C(F)(F)F)CC2)C3)no1)n1ccc(C2CCOCC2)n1` (centres unmarked) [I-115], the half-maximal inhibitory concentration (IC50) in the experiment on Kuramochi cells (72 h) was 5 to 10 µM; at CDK2/Cyclin E1, 0.5 to 5 µM.
For `CC(c1nc(C2CN(C(=O)c3cnc(O)cn3)CC23CN(C(=O)[C@H]2CC2(F)F)C3)no1)n1ccc(C2CCOCC2)n1` (stereo partly drawn) [I-116, (2-((R)-2,2-difluorocyclopropane-1-carbonyl)-8-(5-(1-(3-(tetrahydro-2H-pyran-4-yl)-1H-pyrazol-1-yl)ethyl)-1,2,4-oxadiazol-3-yl)-2,6-diazaspiro[3.4]octan-6-yl)(5-hydroxypyrazin-2-yl)methanone] the same measures were more than 10 µM and more than 10 µM.
For `COC(=O)c1ccc(Cn2cc(C(=O)N3CC(c4noc(C(C)n5ccc(C6CCCC6)n5)n4)C4(C3)CN(C(=O)[C@H]3CC3(C)C)C4)cn2)cn1` (some centres unmarked) [I-117] the same measures were more than 10 µM and 0.5 to 5 µM.
For `CC(c1nc(C2CN(C(=O)c3cnn(CC#N)c3)CC23CN(C(=O)[C@H]2CC2(C)C)C3)no1)n1ccc(C2CCCC2)n1` (stereo partly drawn) [I-119, 2-(4-(8-(5-(1-(3-cyclopentyl-1H-pyrazol-1-yl)ethyl)-1,2,4-oxadiazol-3-yl)-2-((S)-2,2-dimethylcyclopropane-1-carbonyl)-2,6-diazaspiro[3.4]octane-6-carbonyl)-1H-pyrazol-1-yl)acetonitrile], the 50% inhibitory concentration (IC50) with Kuramochi cells (72 h) is more than 10 µM; against CDK2/Cyclin E1, 0.5 to 5 µM.
As for `O=C(c1cc(O)n[nH]1)N1CC(c2nnc(C(F)(F)c3ccc(Cl)c(Cl)c3)o2)C2(C1)CN(C(=O)[C@H]1CC1(F)F)C2` (stereo partly drawn) [I-120, (8-(5-((3,4-dichlorophenyl)difluoromethyl)-1,3,4-oxadiazol-2-yl)-2-((R)-2,2-difluorocyclopropane-1-carbonyl)-2,6-diazaspiro[3.4]octan-6-yl)(3-hydroxy-1H-pyrazol-5-yl)methanone], the concentration for half-maximal inhibition (IC50) in the experiment with Kuramochi cells (72 h) and at CDK2/Cyclin E1 was more than 10 µM each time.
Consider `CC(c1nc(C2CN(C(=O)c3cnn(Cc4ccc(-c5nnn[nH]5)cc4)c3)CC23CN(C(=O)[C@H]2CC2(C)C)C3)no1)n1ccc(C2CCCC2)n1` (stereo partly drawn) [I-121, (1-(4-(1H-tetrazol-5-yl)benzyl)-1H-pyrazol-4-yl)(8-(5-(1-(3-cyclopentyl-1H-pyrazol-1-yl)ethyl)-1,2,4-oxadiazol-3-yl)-2-((S)-2,2-dimethylcyclopropane-1-carbonyl)-2,6-diazaspiro[3.4]octan-6-yl)methanone], for which the IC50 in the experiment with Kuramochi cells (72 h) was more than 10 µM; against CDK2/Cyclin E1, 0.5 to 5 µM.
For `CC(c1nc(C2CN(C(=O)c3cnn(Cc4ccc(C(=O)O)c(O)c4)c3)CC23CN(C(=O)[C@H]2CC2(C)C)C3)no1)n1ccc(C2CCCC2)n1` (stereo partly drawn) [I-122, 4-((4-(8-(5-(1-(3-cyclopentyl-1H-pyrazol-1-yl)ethyl)-1,2,4-oxadiazol-3-yl)-2-((S)-2,2-dimethylcyclopropane-1-carbonyl)-2,6-diazaspiro[3.4]octane-6-carbonyl)-1H-pyrazol-1-yl)methyl)-2-hydroxybenzoic acid] the same measures were more than 10 µM and 5 to 10 µM.
For `CC(c1nc(C2CN(C(=O)c3cnn(Cc4ccccc4C(=O)O)c3)CC23CN(C(=O)[C@H]2CC2(C)C)C3)no1)n1ccc(C2CCCC2)n1` (some centres unmarked) [I-123] the same measures were more than 10 µM and not above 0.5 µM.
On the same counts, the results for `CC(c1nc(C2CN(C(=O)c3cnn(Cc4ccc(OC(C)(C)C(=O)O)cc4)c3)CC23CN(C(=O)[C@H]2CC2(C)C)C3)no1)n1ccc(C2CCCC2)n1` (some centres unmarked) [I-124] are more than 10 µM and 0.5 to 5 µM.
With `CC(c1nc(C2CN(C(=O)c3cnn(Cc4ccc(C#N)cc4)c3)CC23CN(C(=O)C2(C(F)(F)F)CC2)C3)no1)n1ccc(C(F)(F)F)n1` (centres unmarked) [I-207], the IC50 with Kuramochi cells (72 h) and on CDK2/Cyclin E1 was more than 10 µM throughout.
For the compound `C=CC(=O)N(C)c1cccc(Cc2ccc(Cn3cc(C(=O)N4CC(c5nnc(C(F)(F)c6ccc(Cl)c(Cl)c6)o5)C5(C4)CN(C(=O)C4(C(F)(F)F)CC4)C5)cn3)cc2)c1` (centres unmarked) [I-208], the half-inhibitory concentration (IC50) with Kuramochi cells (72 h) and on CDK2/Cyclin E1 was more than 10 µM each time.
For the compound `O=C(c1cnc(O)cn1)N1CC(c2nnc(C(C(=O)N3CCC(c4nccs4)CC3)c3ccc(C4CCOCC4)cc3)o2)C2(C1)CN(C(=O)C1(C(F)(F)F)CC1)C2` (centres unmarked) [I-209], the values for the 50% inhibitory concentration (IC50) with Kuramochi cells (72 h) and on CDK2/Cyclin E1 were not above 0.5 µM and more than 10 µM, respectively.
Take `CC(c1nc(C2CN(C(=O)c3cnn(Cc4ccc(C#N)cc4)c3)CC23CN(C(=O)C2(C(F)(F)F)CC2)C3)no1)n1ccc(C2CCC(F)(F)CC2)n1` (centres unmarked) [I-210]: the values for the half-maximal inhibitory concentration (IC50) in the experiment on Kuramochi cells (72 h) and on CDK2/Cyclin E1 were not above 0.5 µM and 0.5 to 5 µM, respectively.
On to `O=C(c1cnn(Cc2ccc(C(F)(F)F)cc2)c1)N1CC(c2noc(N(Cc3ccc(Cl)c(Cl)c3)CC3CCOCC3)n2)C2(C1)CN(C(=O)C1(C(F)(F)F)CC1)C2` (centres unmarked) [I-213, (8-(5-((3,4-dichlorobenzyl)((tetrahydro-2H-pyran-4-yl)methyl)amino)-1,2,4-oxadiazol-3-yl)-2-(1-(trifluoromethyl)cyclopropane-1-carbonyl)-2,6-diazaspiro[3.4]octan-6-yl)(1-(4-(trifluoromethyl)benzyl)-1H-pyrazol-4-yl)methanone], for which the IC50 was 5 to 10 µM with Kuramochi cells (72 h) and more than 10 µM against CDK2/Cyclin E1.
On the same counts, the results for `CC(c1nc(C2CN(C(=O)c3cnn(Cc4ccc(C#N)cc4C(=O)O)c3)CC23CN(C(=O)C2(C(F)(F)F)CC2)C3)no1)n1ccc(C2(C(F)(F)F)CC2)n1` (centres unmarked) [I-214] are more than 10 µM and 0.5 to 5 µM.
As for `COC(=O)c1cc(C#N)ccc1Cn1cc(C(=O)N2CC(c3noc(C(C)n4ccc(C5(C(F)(F)F)CC5)n4)n3)C3(C2)CN(C(=O)C2(C(F)(F)F)CC2)C3)cn1` (centres unmarked) [I-215], the 50% inhibitory concentration (IC50) in the experiment on Kuramochi cells (72 h) fell in the range of 5 to 10 µM; at CDK2/Cyclin E1, 0.5 to 5 µM.
On the same counts, the results for `O=C(c1cnn(Cc2ccc(C(F)(F)F)cc2)c1)N1CC(c2nnc(C(C(=O)N3CCC(c4nccs4)CC3)c3ccc(C4CCOCC4)cc3)o2)C2(C1)CN(C(=O)C1(C(F)(F)F)CC1)C2` (centres unmarked) [I-216, 2-(4-(tetrahydro-2H-pyran-4-yl)phenyl)-1-(4-(thiazol-2-yl)piperidin-1-yl)-2-(5-(6-(1-(4-(trifluoromethyl)benzyl)-1H-pyrazole-4-carbonyl)-2-(1-(trifluoromethyl)cyclopropane-1-carbonyl)-2,6-diazaspiro[3.4]octan-8-yl)-1,3,4-oxadiazol-2-yl)ethan-1-one] are 0.5 to 5 µM and not above 0.5 µM.
For `CC(c1nc(C2CN(C(=O)c3cnn(Cc4ccc(C(F)(F)F)cc4)c3)CC23CN(C(=O)C2(C(F)(F)F)CC2)C3)no1)n1ccc(C23CCC(CC2)OC3)n1` (centres unmarked) [I-217, (8-(5-(1-(3-(2-oxabicyclo[2.2.2]octan-4-yl)-1H-pyrazol-1-yl)ethyl)-1,2,4-oxadiazol-3-yl)-2-(1-(trifluoromethyl)cyclopropane-1-carbonyl)-2,6-diazaspiro[3.4]octan-6-yl)(1-(4-(trifluoromethyl)benzyl)-1H-pyrazol-4-yl)methanone] the same measures were 5 to 10 µM and 0.5 to 5 µM.
For `CC(c1nc(C2CN(C(=O)c3cnn(Cc4ccc(C(F)(F)F)cc4C(=O)O)c3)CC23CN(C(=O)C2(C(F)(F)F)CC2)C3)no1)n1ccc(C2(C(F)(F)F)CC2)n1` (centres unmarked) [I-218, 5-(trifluoromethyl)-2-((4-(2-(1-(trifluoromethyl)cyclopropane-1-carbonyl)-8-(5-(1-(3-(1-(trifluoromethyl)cyclopropyl)-1H-pyrazol-1-yl)ethyl)-1,2,4-oxadiazol-3-yl)-2,6-diazaspiro[3.4]octane-6-carbonyl)-1H-pyrazol-1-yl)methyl)benzoic acid] the same measures were more than 10 µM and more than 10 µM.
For `COC(=O)c1cc(C(F)(F)F)ccc1Cn1cc(C(=O)N2CC(c3noc(C(C)n4ccc(C5(C(F)(F)F)CC5)n4)n3)C3(C2)CN(C(=O)C2(C(F)(F)F)CC2)C3)cn1` (centres unmarked) [I-219, methyl 5-(trifluoromethyl)-2-((4-(2-(1-(trifluoromethyl)cyclopropane-1-carbonyl)-8-(5-(1-(3-(1-(trifluoromethyl)cyclopropyl)-1H-pyrazol-1-yl)ethyl)-1,2,4-oxadiazol-3-yl)-2,6-diazaspiro[3.4]octane-6-carbonyl)-1H-pyrazol-1-yl)methyl)benzoate], the IC50 in the experiment with Kuramochi cells (72 h) and at CDK2/Cyclin E1 was more than 10 µM each time.
